# Several values for one entry are separate records, joined by “and”; a condition that tells them apart may be missing. Equal values may be shown once. Inconclusive results and toxic doses are left out.
# Tested on: CD2F1 mice, L1210 leukemia ip, survival T/C
# Assay: NCI In Vivo Anticancer Drug Screen. Data for tumor model L1210 Leukemia (intraperitoneal) in CD2F1 (CDF1) mice
# Conditions: endpoint: mean survival time, higher = longer survival
# Outline: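 Transplantable tumor in mice; compound-treated vs vehicle-treated groups. Read-out = treated/control ratio of the measured endpoint.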
# [1] = dose: 75.0 mg/kg/injection, schedule: Q04DX003 (ip), vehicle: saline
# [2] = dose: 150.0 mg/kg/injection, schedule: Q04DX003 (ip), vehicle: saline
# [3] = dose: 300.0 mg/kg/injection, schedule: Q04DX003 (ip), vehicle: saline
# [4] = dose: 100.0 mg/kg/injection, schedule: Q01DX001 (ip), vehicle: saline
# [5] = dose: 200.0 mg/kg/injection, schedule: Q01DX001 (ip), vehicle: saline
# [6] = dose: 400.0 mg/kg/injection, schedule: Q01DX001 (ip), vehicle: saline
# [7] = dose: 12.5 mg/kg/injection, schedule: Q01DX009 (ip), vehicle: saline with Tween-80
# [8] = dose: 25.0 mg/kg/injection, schedule: Q01DX009 (ip), vehicle: saline with Tween-80
# [9] = dose: 50.0 mg/kg/injection, schedule: Q01DX009 (ip), vehicle: saline with Tween-80
structure (smiles),measurement,setting,value
Cc1cc2c(c3oc(C4(C)OC4C4OC4C)cc(=O)c13)C(=O)c1c(O)c(C3CC(C)(N(C)C)C(O)C(C)O3)cc(C3CC(N(C)C)C(O)C(C)O3)c1C2=O (centres undefined),T/C,"dose: 0.07 mg/kg/injection, schedule: Q01DX009 (oral), vehicle: saline",87 % of control
same,T/C,"dose: 0.13 mg/kg/injection, schedule: Q01DX009 (oral), vehicle: saline",93 % of control
same,T/C,"dose: 0.25 mg/kg/injection, schedule: Q01DX001 (oral), vehicle: saline",98 % of control
same,T/C,"dose: 0.25 mg/kg/injection, schedule: Q01DX009 (oral), vehicle: saline",92 % of control
same,T/C,"dose: 0.5 mg/kg/injection, schedule: Q01DX001 (oral), vehicle: saline",97 % of control
same,T/C,"dose: 0.5 mg/kg/injection, schedule: Q01DX009 (oral), vehicle: saline",100 % of control
same,T/C,"dose: 1.0 mg/kg/injection, schedule: Q01DX001 (oral), vehicle: saline",96 % of control
same,T/C,"dose: 2.0 mg/kg/injection, schedule: Q01DX001 (oral), vehicle: saline",97 % of control
same,T/C,"dose: 1.0 micrograms/kg/injection, schedule: Q03HX024 (ip), vehicle: saline",106 % of control
same,T/C,"dose: 1.3 micrograms/kg/injection, schedule: Q01DX009 (ip), vehicle: water",101 % of control
same,T/C,"dose: 2.0 micrograms/kg/injection, schedule: Q03HX024 (ip), vehicle: saline",111 % of control
same,T/C,"dose: 2.5 micrograms/kg/injection, schedule: Q01DX009 (ip), vehicle: water",112 % of control
same,T/C,"dose: 4.0 micrograms/kg/injection, schedule: Q01DX009 (ip), vehicle: saline",102 % of control
same,T/C,"dose: 4.0 micrograms/kg/injection, schedule: Q03HX024 (ip), vehicle: saline",111 % of control
same,T/C,"dose: 5.0 micrograms/kg/injection, schedule: Q01DX009 (ip), vehicle: water",108 % of control
same,T/C,"dose: 8.0 micrograms/kg/injection, schedule: Q01DX009 (ip), vehicle: saline",109 % of control
same,T/C,"dose: 8.0 micrograms/kg/injection, schedule: Q03HX008 (ip), vehicle: saline",103 % of control
same,T/C,"dose: 8.0 micrograms/kg/injection, schedule: Q03HX024 (ip), vehicle: saline",112 % of control
same,T/C,"dose: 10.0 micrograms/kg/injection, schedule: Q01DX009 (ip), vehicle: water",112 % of control
same,T/C,"dose: 15.0 micrograms/kg/injection, schedule: Q01DX009 (ip), vehicle: saline",109 % of control
same,T/C,"dose: 15.0 micrograms/kg/injection, schedule: Q03HX008 (ip), vehicle: saline",112 % of control
same,T/C,"dose: 15.0 micrograms/kg/injection, schedule: Q08DX002 (ip), vehicle: saline",98 % of control
same,T/C,"dose: 20.0 micrograms/kg/injection, schedule: Q01DX009 (ip), vehicle: water",106 % of control
same,T/C,"dose: 30.0 micrograms/kg/injection, schedule: Q01DX009 (ip), vehicle: saline",114 % of control
same,T/C,"dose: 30.0 micrograms/kg/injection, schedule: Q03HX008 (ip), vehicle: saline",113 % of control
same,T/C,"dose: 30.0 micrograms/kg/injection, schedule: Q08DX002 (ip), vehicle: saline",98 % of control
same,T/C,"dose: 40.0 micrograms/kg/injection, schedule: Q01DX009 (ip), vehicle: water",91 % of control
same,T/C,"dose: 60.0 micrograms/kg/injection, schedule: Q03HX008 (ip), vehicle: saline",118 % of control
same,T/C,"dose: 60.0 micrograms/kg/injection, schedule: Q08DX002 (ip), vehicle: saline",106 % of control
same,T/C,"dose: 120.0 micrograms/kg/injection, schedule: Q08DX002 (ip), vehicle: saline",121 % of control
CC(=O)Nc1ccc2c(Nc3ccc(NS(C)(=O)=O)cc3)c3ccccc3nc2c1,T/C,"dose: 8.0 mg/kg/injection, schedule: Q01DX009 (ip), vehicle: saline with Tween-80",192 % of control
same,T/C,"dose: 12.0 mg/kg/injection, schedule: Q01DX009 (ip), vehicle: saline with Tween-80",203 % of control
same,T/C,"dose: 18.0 mg/kg/injection, schedule: Q01DX009 (ip), vehicle: saline with Tween-80",105 % of control
same,T/C,"dose: 100.0 mg/kg/injection, schedule: Q04DX003 (ip), vehicle: saline",122 % of control
same,T/C,"dose: 200.0 mg/kg/injection, schedule: Q04DX003 (ip), vehicle: saline",101 % of control
Cc1c(C)c(CSC#N)c(C)c(C)c1CSC#N,T/C,[1],98 % of control
same,T/C,[2],102 % of control
same,T/C,[3],95 % of control
BrC/C(=N\N1CCCCCC1)c1ccc(-c2ccccc2)cc1,T/C,[4],92 % of control
same,T/C,[5],93 % of control
same,T/C,[6],94 % of control
CCCC(CN(C)C)C(=O)c1ccccc1 (centres undefined),T/C,"dose: 100.0 mg/kg/injection, schedule: Q04DX002 (ip), vehicle: saline with Tween-80",86 % of control
CCOC(=O)NC(S(=O)(=O)O)S(=O)(=O)O,T/C,[4],104 % of control
same,T/C,[5],104 % of control
same,T/C,[6],108 % of control
CCOC(=O)CCN(C(=O)OCc1ccccc1)N(C)C(=O)OCc1ccccc1,T/C,"dose: 25.0 mg/kg/injection, schedule: Q04DX003 (ip), vehicle: Klucel (hydroxypropylcellulose) (HPC)",91 % of control
same,T/C,"dose: 50.0 mg/kg/injection, schedule: Q04DX003 (ip), vehicle: Klucel (hydroxypropylcellulose) (HPC)",94 % of control
same,T/C,"dose: 100.0 mg/kg/injection, schedule: Q04DX003 (ip), vehicle: Klucel (hydroxypropylcellulose) (HPC)",89 % of control
same,T/C,"dose: 200.0 mg/kg/injection, schedule: Q04DX003 (ip), vehicle: Klucel (hydroxypropylcellulose) (HPC)",89 % of control
same,T/C,"dose: 400.0 mg/kg/injection, schedule: Q04DX003 (ip), vehicle: Klucel (hydroxypropylcellulose) (HPC)",100 % of control
O=Cc1ccc([N+](=O)[O-])s1,T/C,"dose: 3.12 mg/kg/injection, schedule: Q01DX009 (ip), vehicle: saline with Tween-80",102 % of control and 108 % of control
same,T/C,"dose: 6.25 mg/kg/injection, schedule: Q01DX009 (ip), vehicle: saline with Tween-80",96 % of control and 102 % of control
same,T/C,[7],97 % of control and 98 % of control
same,T/C,[8],104 % of control and 105 % of control
same,T/C,[9],103 % of control and 107 % of control
same,T/C,"dose: 100.0 mg/kg/injection, schedule: Q01DX009 (ip), vehicle: saline with Tween-80",109 % of control
COC(=O)C(O)C(O)C(O)C(O)C(O)CO (centres undefined),T/C,[4],95 % of control
same,T/C,[5],98 % of control
same,T/C,[6],96 % of control
CN(C)c1nc2c(c(=O)n(C)c(=O)n2C)n1C,T/C,"dose: 12.5 mg/kg/injection, schedule: Q01DX005 (ip), vehicle: distilled water + Tween-80",94 % of control
same,T/C,"dose: 25.0 mg/kg/injection, schedule: Q01DX005 (ip), vehicle: distilled water + Tween-80",93 % of control
same,T/C,"dose: 50.0 mg/kg/injection, schedule: Q01DX005 (ip), vehicle: distilled water + Tween-80",93 % of control
same,T/C,"dose: 100.0 mg/kg/injection, schedule: Q01DX005 (ip), vehicle: distilled water + Tween-80",88 % of control
NC(N)=NCCNC(=O)C1CCC(N)C1 (centres undefined),T/C,"dose: 0.63 mg/kg/injection, schedule: Q01DX009 (ip), vehicle: saline",96 % of control
same,T/C,"dose: 1.25 mg/kg/injection, schedule: Q01DX009 (ip), vehicle: saline",96 % of control
CCc1ccc(S(=O)(=O)c2ccc(C)cc2)cc1,T/C,[1],100 % of control
same,T/C,[2],100 % of control
same,T/C,[3],100 % of control
O=C(Nc1ccccc1)Nc1ccc(Cl)c(Cl)c1,T/C,"dose: 100.0 mg/kg/injection, schedule: Q04DX003 (ip), vehicle: acetone",98 % of control
same,T/C,"dose: 200.0 mg/kg/injection, schedule: Q04DX003 (ip), vehicle: acetone",101 % of control
same,T/C,"dose: 400.0 mg/kg/injection, schedule: Q04DX003 (ip), vehicle: acetone",106 % of control
CC(C)(Br)C(=O)c1ccco1,T/C,"dose: 100.0 mg/kg/injection, schedule: Q04DX003 (ip), vehicle: saline sonified",101 % of control
same,T/C,"dose: 200.0 mg/kg/injection, schedule: Q04DX003 (ip), vehicle: saline sonified",102 % of control
same,T/C,"dose: 400.0 mg/kg/injection, schedule: Q04DX003 (ip), vehicle: saline sonified",95 % of control
Nc1ccc(-c2nc(-c3ccccc3)c(-c3ccccc3)[nH]2)cc1,T/C,"dose: 12.5 mg/kg/injection, schedule: Q01DX001 (ip), vehicle: saline with Tween-80",94 % of control
same,T/C,"dose: 25.0 mg/kg/injection, schedule: Q01DX001 (ip), vehicle: saline with Tween-80",102 % of control
same,T/C,"dose: 50.0 mg/kg/injection, schedule: Q01DX001 (ip), vehicle: saline with Tween-80",102 % of control
same,T/C,"dose: 400.0 mg/kg/injection, schedule: Q01DX001 (ip), vehicle: saline with Tween-80",87 % of control
Nc1nc(OCc2ccccc2)ncc1C(=O)NCC(=O)O,T/C,[7],105 % of control
same,T/C,[8],100 % of control
same,T/C,[9],104 % of control
NCCN1CCc2ccccc2C1,T/C,"dose: 6.25 mg/kg/injection, schedule: Q04DX003 (ip), vehicle: saline",101 % of control
same,T/C,"dose: 12.5 mg/kg/injection, schedule: Q04DX003 (ip), vehicle: saline",106 % of control
same,T/C,"dose: 25.0 mg/kg/injection, schedule: Q04DX003 (ip), vehicle: saline",101 % of control
